Experimental data from patent US9551711B2, “Compositions and methods for detecting nitration of PKG-1α and methods of use thereof” (Augusta University Research Institute, Inc., priority 2013, dated 2017).

Experiments:
PKG-1α [1] = target: T1, PKG-1α (Homo sapiens, UniProt Q13976); test: PKG catalytic activity, Michaelis-Menten kinetics for cGMP; format: biochemical; design: an expression plasmid containing a full length WT-PKG-1α cDNA; made in house; host or cells: HEK-293T; the results paragraph b304 says PASMC
T1 sequence (Q13976 2-671): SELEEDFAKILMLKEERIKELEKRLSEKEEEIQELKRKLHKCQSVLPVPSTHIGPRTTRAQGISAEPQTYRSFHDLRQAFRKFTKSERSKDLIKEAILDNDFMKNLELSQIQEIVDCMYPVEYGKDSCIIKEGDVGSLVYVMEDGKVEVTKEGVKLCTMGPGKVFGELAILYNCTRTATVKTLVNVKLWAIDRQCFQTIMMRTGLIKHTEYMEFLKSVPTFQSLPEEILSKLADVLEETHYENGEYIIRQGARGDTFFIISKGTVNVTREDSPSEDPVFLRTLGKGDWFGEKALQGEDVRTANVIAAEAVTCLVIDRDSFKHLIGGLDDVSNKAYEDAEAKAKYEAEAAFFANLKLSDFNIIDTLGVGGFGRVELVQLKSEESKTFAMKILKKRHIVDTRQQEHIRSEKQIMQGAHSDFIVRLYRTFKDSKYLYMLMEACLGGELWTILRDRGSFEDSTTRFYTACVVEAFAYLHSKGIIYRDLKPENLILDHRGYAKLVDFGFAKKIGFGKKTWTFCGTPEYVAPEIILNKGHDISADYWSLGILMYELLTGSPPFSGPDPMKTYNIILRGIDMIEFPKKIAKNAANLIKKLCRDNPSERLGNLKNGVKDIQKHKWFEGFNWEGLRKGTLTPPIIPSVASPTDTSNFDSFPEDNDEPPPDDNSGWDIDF
Method: Total PKG activity was determined using a non-radioactive immunoassay in cell lysates, according to the manufacturer's directions. Briefly, protein samples were diluted in kinase reaction buffer containing Mg^2+ and ATP (125 μM) in the presence or absence of 8-Br cGMP (10 μM) and incubated in a 96 well plate pre-coated with a PKG substrate containing threonine residues phosphorylated by PKG.
(§1) After incubation for 30 min at 30° C. to allow the phosphorylation of the bound substrate, an HRP conjugated anti-phosphothreonine specific antibody was added to convert a chromogenic substrate to a colorimetric substrate that was subsequently read spectrophotometrically at 450 nm. The change in absorbance reflected the relative activity of PKG in the sample. The results were reported as pmols of phosphate incorporated into the GST-G substrate fusion protein by active PKG in the sample in the presence or absence of cGMP (10 μM) per minute at 30° C. per μg of protein (pmol/min/μg). […] The kinetic constants were determined using nonlinear regression (curve fit) analysis (GraphPad Prism Software Inc.).
To determine the Michaelis-Menten constant (Km) for cGMP, the kinase assay was performed, as mentioned above; however, the cGMP concentration was titrated from 0-10 μM, while the ATP concentration remained constant at 125 μM.

[2] = system: pulmonary artery smooth muscle cells (PASMC); test: PASMC cell growth (cell count); format: cell-based, lamb; conditions: WT-PKG-1α transfected PASMC; SIN-1 500 μM, 48 h
Method: Pulmonary artery smooth muscle cells (PASMC) were grown on a 10 cm dish to 75% confluence, transfected with WT-PKG-1α or Y247F-PKG-1α cDNA using a Qiagen transfection kit, according to manufacturer's instructions, and incubated at 37° C. for 20 h. […] The cells were then trypsinized, seeded onto a 6-well plate at a density of 2.5×10^4 cells per well, and grown for an additional 4 h in serum-free DMEM growth medium containing 1% FBS and antibiotics. The cells were then treated with or without SIN-1 (500 μM) and allowed to grow at 37° C. in the incubator for an additional 48 h. The cellular proliferation was evaluated by counting the cells with a hemacytometer (Cascade Biologicals™, Portland, Oreg.) after the trypsinization of the PASMC monolayers.
Primary cultures of pulmonary artery smooth muscle cells (PASMC) from 4-week old lambs were isolated by the explant technique, as previously described (Wedgwood, S., et al., Circulation Research 89, 357-364 (2001)). Briefly, a segment of the main pulmonary artery from a 4-week old lamb was excised and placed in a sterile 10 cm dish containing DMEM supplemented with 1 gm/1 glucose. The segment was stripped of adventitia with a sterile forceps. The main pulmonary artery segment was then cut longitudinally to open the vessel, and the endothelial layer was removed by gentle rubbing with a cell scraper. […]

PKG-1α [3] = target: T1, PKG-1α; test: PKG activity in transfected HEK-293T cells; format: cell-based; design: an expression plasmid containing a full length WT-PKG-1α cDNA; made in house; host or cells: HEK-293T; conditions: HEK-293T expressing WT-PKG-1α; SIN-1 500 μM, 30 min
Method: To determine the role of tyrosine 247 and tyrosine 425 in mediating the nitration dependent inhibition of PKG-1α kinase activity, Y247F- and Y425F-PKG-1α mutants were generated and expressed in HEK-293T cells. HEK-293T cells were transiently transfected with expression plasmids containing WT-, Y247F-, or Y425F-PKG-1α for 48 h. […] Protein extracts were immunoprecipitated using an antibody raised against PKG-1α and the level of nitrated PKG-1α determined by probing the membranes with an antiserum raised against 3-NT. The blots were then stripped and re-probed for PKG-1α to normalize for the efficiency of the immunoprecipitation.
Total PKG activity was determined using a non-radioactive immunoassay in cell lysates, according to the manufacturer's directions. […]
as §1, with “sample.” for “sample. The results were reported as pmols of phosphate incorporated into the GST-G substrate fusion protein by active PKG in the sample in the presence or absence of cGMP (10 μM) per minute at 30° C. per μg of protein (pmol/min/μg).”

Vmax of the reaction (PKG-1α [1]; WT PKG-1α after SIN-1 challenge, ATP 125 μM, cGMP 0-10 μM): 0.28 pmol/min/µg
Km (PKG-1α [1]; WT-PKG-1α upon SIN-1 treatment, read-out: Michaelis-Menten constant (Km) for cGMP): 8.91 nM
cGMP dependent PKG activity (PKG-1α [3]): attenuated
Substance: 3-morpholinosydnonimine N-ethylcarbamide [SIN-1]
proliferation [2]: stimulated
